According to patent US6664271B1, “Immunopotentiator agents” (Eli Lilly and Company, priority 1999, dated 2003):
Marks after values point to notes of the source that are not given here.

How the values were obtained:
chicken leukocytes = assay: cells; type: cell-based
Protocol: Various compounds of Formula I were evaluated for in vitro T-lymphocyte blastogenic activity with chicken leukocytes according to the steps described in the following procedure:
(a) Exsanguination step. The leukocytes were obtained from 3-6 week old Hubbard/Peterson broiler chickens. Initially, the chickens were rendered unconscious in a CO2 chamber. The chickens were then exsanguinated via cardiac puncture. In the exsanguination procedure, a syringe was connected to a needle, and the needle was inserted into the area at the base of the neck under the “V” formed by the breast and sternum. After the needle was properly inserted, continuous vacuum was applied to a syringe (connected to the needle) by pulling back on the plunger. It is important to promptly carry out this withdrawal action, because there is only a 10-15 seconds time period after the blood has starting flowing into the syringe before the blood coagulates, and becomes unusable. As soon as the syringe is full (or prior to complete filling if too much time has elapsed such that the blood begins to coagulate), the whole uncoagulated blood is transferred to a tube having the anticoagulant EDTA therein. The tube is then rotated to mix the whole blood and the EDTA. Alternatively, the whole blood can be withdrawn directly into a vacuum container already having EDTA therein, rather than into a syringe.
(b) Leukocyte isolation step. Numerous methods for isolating leukocytes from (uncoagulated) whole blood are known in the art. In a preferred method, the sterile whole blood was combined with methylcellulose (1.5:1). Any blood containing clots was discarded. The mixture was centrifuged at 30×g for ten minutes (300 rpm on Beckman GS-6R centrifuge). The top layer (leukocytes in supernatant) was decanted into a sterile 50 ml conical tube, while taking care to prevent contamination of the sample by red blood cells. The decanted layer was then centrifuged at 200×g for ten minutes (1500 rpm on the Beckman GS-6R centrifuge). The supernatant liquid was discarded, and the resulting cell “pellet” was retained.
The cells were then washed in a solution containing 10 ml PBS (phosphate buffered saline) and Gentamycin (gentamicin sulfate) at a concentration of 50 μg/ml. This solution was centrifuged at 100×g (1000 rpm on the Beckman centrifuge) for five minutes, and the supernatant liquid was discarded. The washing step (including the centrifuging at 100×g) was repeated to ensure complete removal of the methylcellulose. The use of media such as DMEM ([…]) was avoided in the washing steps, since such media may cause agglutination of the white blood cells. Finally, the cells were then suspended in an appropriate media, such as RPMI 1640 tissue cell culture medium, supplemented with phenol red, NaHCO3, and L-Glutamide. Supplemented RPMI 1640 is available from Sigma-Aldrich Chemical Co.
(c) Cell counting and cell viability step. The cells were counted and checked for viability using the Trypan Blue method of exclusion. 0.1 ml of the cell suspension was placed in a 4-5 ml small culture tube along with 0.7 ml HBSS (Hank's Buffered Saline Solution), available from Sigma-Aldrich, and 0.2 ml of a 0.4% solution of aqueous Trypan Blue stain, available from GIBCO BRL, of Grand Island, N.Y. The components were mixed thoroughly but gently, and allowed to sit for 5 minutes (no longer than 15 minutes). The components should not be exposed to the stain for extended periods of time, because such extended exposure may permit viable cells, as well as non-viable cells, to take up dye.
A cover slip was placed on a Bright Line hemacytometer, available from Howser Scientific, and 10 μl of the mixture from the tube was transferred to each chamber. Non-viable cells appear blue under a microscope. The viable cells in one of the 16-square corners of the hemacytometer were then counted. […]

[1] = test system: Actinobacillus pleuropneumoniae (App) 92C; assay: Seeder Pig Infection Model (Example 76); type: in vivo; settings: contact pigs
Excerpt: The compound prepared in Example 30, namely (S)-ethyl 1-(2-thiopheneacetyl)-3-piperidinecarboxylate, was utilized in a test formulation to investigate its efficacy to prevent or control the horizontal transmission of Actinobacillus pleuropneumoniae (App) 92C in a Seeder Pig Infection Model. The seeder pig model was chosen for the efficacy evaluation of the immunopotentiator compounds and analogs to prevent or control disease caused by App in recently weaned pigs. This model mimics a field outbreak of pneumonia in nursery pigs.
The animals tested were purchased from a commercial herd source known to be free of obvious disease and not recently on medication. There were a total of seventy-two (72) pigs, recently weaned and weighing in the approximate range of 15-20 pounds (6.8-9.1 kg). The challenged pigs were infected with an intranasal inoculation of Actinobacillus pleuropneumoniae (App), lyophilized #92C, a serotype 1, Iowa strain. The challenge material was a saline suspension containing a 2.5 hour log-phase growth broth culture, centrifuged and reconstituted at a concentration that contains 3×10^7 App 92C colony forming units (CFU) per pig in a 4 ml dose. An approved Animal Use Protocol governed the conduct of this trial.
Upon arrival, the pigs were double ear-tagged and divided into contact (48) and seeder (24) pig/groups. The seeder pigs were placed in two (2) groups of twelve (12) pigs per room (Groups 1). The contact pigs were placed in (8) groups of six (6) pigs per room (Groups 2-9). Lilly swine ration, AP11 SW and water were available ad libitum. All animals were observed daily and a room record was recorded.
Day −5 Pigs arrive for the acclimation period of a minimum of 5 days.
Day 0 Daily individual observations of clinical impression signs begin and continue throughout the experiment. These were scored on a 0 to 3 scale (0=normal: alert, responsive; 1=slight: dyspnea, rough coat, slow to react; 2=moderate: lethargic, rough coat, breathing difficulty; 3=severe: unresponsive, breathing distress (open mouth).
Day 0 Individual animal weights of the contacts were taken.
Day 0 2 hours prior to infection of the seeder pigs, the contact pigs were injected via the intraperitoneal route with the test formulations. Two (2) rooms of six (6) pigs were treated with each of the following dose levels: 0 μg/pig, 125 μg/pig, 250 μg/pig, and 500 μg/pig.
Day 0 Twenty-four (24) seeder pigs were challenged with a dose containing […] CFU of Actinobacillus pleuropneumoniae (App) 92C inoculum. The infected seeder pigs were then placed, 3 pigs per room, with the 6 treated contact pigs. To maximize the horizontal transmission of App, the living space in the rooms was reduced from 120 sq. ft. to 60 sq. ft., by placing partitions in the rooms.
Day +3 to +5 The seeder pigs were removed from all rooms. The pigs were euthanized, lung pathology was determined and lung cultures were taken. Moribund animals were euthanized. Any animals that succumbed to infection while on test were necropsied, lung lesions were scored and a sample was taken for bacterial isolation.
Day +14 The experiment was terminated. The contact pigs (Groups 2-9) were weighed, euthanized, and necropsied, with lung lesion scoring and bacterial culture assessment.
The test formulations were in an Acetate Buffered Saline vehicle. Samples were analyzed for potency. Data obtained was analyzed for weight gain, mortality, clinical impression scores, lung lesions, and bacteriologic recovery. Statistics were performed as appropriate to detect differences between groups.

Q: With `CCOC(=O)[C@H]1CCCN(C(=O)Cc2cccs2)C1` [Example 30, (S)-Ethyl 1-(2-Thiopheneacetyl)-3-piperidinecarboxylate] as the compound, how does the minimal effective concentration (chicken leukocytes; Gallus gallus, Leukocyte, chicken leukocytes, read at 72 hours, read-out: MSC (Minimum Stimulatory Concentration)) read?
A: 0.1 µg/mL

Q: What about the “MTC (Maximum Tolerable Concentration prior to causing cytotoxicity)” value (chicken leukocytes; Hubbard/Peterson broiler, chicken, 72 h) of the same compound?
A: 10 µg/mL

Q: What about the “% Lung Consolidation” value ([1]; 125 μg/pig intraperitoneal) of the same compound?
A: 14.0%

Q: And the “% Lung Lesions” value ([1]; 125 μg/pig intraperitoneal)?
A: 41.5%

Q: What about the “% Mortality” value ([1]; 125 μg/pig intraperitoneal) of the same compound?
A: 16.6%

Q: And the “App Reisolation” value ([1]; 125 μg/pig intraperitoneal)?
A: 41.5

Q: And the “% Lung Consolidation” value ([1]; 250 μg/pig intraperitoneal)?
A: 0.44%

Q: What about the “% Lung Lesions” value ([1]; 250 μg/pig intraperitoneal) of the same compound?
A: 0* %

Q: What about the “% Mortality” value ([1]; 250 μg/pig intraperitoneal) of the same compound?
A: 0%

Q: What about the “App Reisolation” value ([1]; 250 μg/pig intraperitoneal) of the same compound?
A: 0*

Q: What about the “% Lung Consolidation” value ([1]; 500 μg/pig intraperitoneal) of the same compound?
A: 4.0%

Q: And the “% Lung Lesions” value ([1]; 500 μg/pig intraperitoneal)?
A: 42.0%

Q: And the “% Mortality” value ([1]; 500 μg/pig intraperitoneal)?
A: 0%

Q: And the “App Reisolation” value ([1]; 500 μg/pig intraperitoneal)?
A: 42
